What was measured:
[1] = target: T1, Human vanilloid receptor (hVR1) (Homo sapiens, UniProt Q8NER1); assay: Capsaicin-induced Ca2+ influx in the human VR1-transfected CHO cell line (Assay 1); format: cell-based; settings: human VR1-CHOluc9aeq cells, stimulation with 10 nM capsaicin, Fluo-3 fluorescence (FDSS-3000); read-out: Activity Class (IC50)
T1 construct: expressed in transfected cells
Excerpt: [Measurement of Capsaicin-induced Ca^2+ influx in the Human VR1-transfected CHO Cell Line] (Assay 1)
• (1) Establishment of the Human VR1-CHOluc9aeq Cell Line • Human vanilloid receptor (hVR1) cDNA was cloned from libraries of axotomized dorsal root ganglia (WO 00/29577). The cloned hVR1 cDNA was constructed with pcDNA3 vector and transfected into a CHOluc9aeq cell line. The cell line contains aequorin and CRE-luciferase reporter genes as read-out signals. The transfectants were cloned by limiting dilution in selection medium (DMEM/F12 medium (Gibco BRL) supplemented with 10%
FCS, 1.4 mM Sodium pyruvate, 20 mM HEPES, 0.15% Sodium bicarbonate, 100 U/ml penicillin, 100 μg/ml streptomycin, 2 mM glutamine, non-essential amino acids and 2 mg/ml G418). Ca^2+ influx was examined in the capsaicin-stimulated clones. A high responder clone was selected and used for furter experiments in the project. The human VR1-CHOluc9aeq cells were maintained in the selection medium and passaged every 3-4 days at 1-2.5×10^5 cells/flask ([…]). • (2) Measurement of Ca^2+ Influx Using FDSS-3000 • Human VR1-CHOluc9aeq cells were suspended in a culture medium which is the same as the selection medium except for G418 and seeded at a density of 1,000 cells per well into 384-well plates (black walled clear-base/Nalge Nunc International). Following the culture for 48 hrs the medium was changed to 2 μM Fluo-3 AM (Molecular Probes) and 0.02% Puronic F-127 in assay buffer (Hank's balanced salt solution (HBSS), 17 mM HEPES (pH7.4), 1 mM Probenecid, 0.1% BSA) and the cells were incubated for 60 min at 25° C. After washing twice with assay buffer the cells were incubated with a test compound or vehicle for 20 min at 25° C. Mobilization of cytoplasmic Ca^2+ was measured by FDSS-3000 (λex=488 nm, λem=540 nm/Hamamatsu Photonics) for 60 sec after the stimulation with 10 nM capsaicin. Integral R was calculated and compared with controls. [Measurement of the Capsaicin-induced Ca^2+ Influx in Primary Cultured Rat Dorsal Root Ganglia Neurons] (Assay 2) • (1) Preparation of Rat Dorsal Root Ganglia Neurons • New born Wister rats (5-11 days) were sacrificed and dorsal root ganglia (DRG) was removed. DRG was incubated with 0.1% trypsin (Gibco BRL) in PBS(−) (Gibco BRL) for 30 min at 37° C., then a half volume of fetal calf serum (FCS) was added and the cells were spun down. The DRG neuron cells were resuspended in Ham F12/5% FCS/5% horse serum (Gibco BRL) and dispersed by repeated pipetting and passing through 70 μm mesh (Falcon). The culture plate was incubated for 3 hours at 37° C. to remove contaminating Schwann cells. Non-adherent cells were recovered and further cultured in laminin-coated 384 well plates (Nunc) at 1×10^4 cells/50 μl/well for 2 days in the presence of 50 ng/ml recombinant rat NGF (Sigma) and 50 μM 5-fluorodeoxyuridine (Sigma). • (2) Ca^2+ Mobilization Assay • DRG neuron cells were washed twice with HBSS supplemented with 17 mM BEPES (pH 7.4) and 0.1% BSA. After incubating with 2 μM fluo-3AM (Volectuar Probe), 0.02% PF127 (Gibco BRL) and 1 mM probenecid (Sigma) for 40 min at 37° C., cells were washed 3 times. The cells were incubated with VR1 antagonists or vehicle (dimethylsulfoxide) and then with 1 μM capsaicin in FDSS-6000 (λex=480 mn, λem=520 nm/Hamamatsu Photonics). The fluorescence changes at […] were monitored for 2.5 min. Integral R was calculated and compared with controls. [Organ Bath Assay to Measure the Capsaicin-induced Bladder Contraction] (Assay 3) • Male Wistar rats (10 week old) were anesthetized with ether and sacrificed by dislocating the necks. The whole urinary bladder was excised and placed in oxygenated Modified Krebs-Henseleit solution (pH 7.4) of the following composition (112 mM NaCl, 5.9 mM KCl, 1.2 mM MgCl2, 1.2 mM NaH2PO4, 2 mM CaCl2, […], 12 mM glucose). Contractile responses of the urinary bladder were studied as described previously [Maggi C A et al: Br. J. Pharmacol. 108: 801-805, 1993]. […]

T1 sequence (Q8NER1 whole entry): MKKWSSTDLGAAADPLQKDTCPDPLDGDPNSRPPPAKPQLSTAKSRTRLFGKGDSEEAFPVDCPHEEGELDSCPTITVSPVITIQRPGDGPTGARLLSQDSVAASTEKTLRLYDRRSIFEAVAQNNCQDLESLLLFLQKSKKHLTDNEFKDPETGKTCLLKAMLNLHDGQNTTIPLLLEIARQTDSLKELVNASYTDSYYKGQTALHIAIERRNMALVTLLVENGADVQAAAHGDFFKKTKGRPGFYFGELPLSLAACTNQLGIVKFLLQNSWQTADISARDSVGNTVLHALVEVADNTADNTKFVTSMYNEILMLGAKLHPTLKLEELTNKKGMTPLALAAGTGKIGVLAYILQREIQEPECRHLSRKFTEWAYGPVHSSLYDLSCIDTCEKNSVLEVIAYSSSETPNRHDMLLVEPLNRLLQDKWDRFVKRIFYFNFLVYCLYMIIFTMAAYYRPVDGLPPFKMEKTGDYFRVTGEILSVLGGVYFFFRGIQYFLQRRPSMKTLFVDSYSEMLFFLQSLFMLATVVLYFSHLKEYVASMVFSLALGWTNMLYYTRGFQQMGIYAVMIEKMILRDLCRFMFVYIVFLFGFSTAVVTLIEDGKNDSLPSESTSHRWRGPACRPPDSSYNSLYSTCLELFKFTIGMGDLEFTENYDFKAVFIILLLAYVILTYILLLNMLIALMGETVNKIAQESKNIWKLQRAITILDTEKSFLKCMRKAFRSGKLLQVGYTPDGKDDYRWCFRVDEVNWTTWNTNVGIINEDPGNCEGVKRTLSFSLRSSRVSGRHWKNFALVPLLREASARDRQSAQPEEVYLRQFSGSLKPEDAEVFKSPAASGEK

Compound | IC50 [1] [µM] | melting point [°C]
O=C(Nc1cccc2c1C[C@@H](O)CC2)C1CCN(c2ccc(C(F)(F)F)cc2Cl)CC1 [Example 1-1, 1-[2-Chloro-4-(trifluoromethyl)phenyl]-N-[(7S)-7-hydroxy-5,6,7,8-tetrahydro-naphthalen-1-yl]piperidine-4-carboxamide] | < 0.1 | 
O=C(Nc1cccc2c1C[C@H](O)CC2)C1CCN(c2cccc(Cl)c2)CC1 [Example 1-2, 1-[3-Chlorophenyl]-N-[(7R)-7-hydroxy-5,6,7,8-tetrahydronaphthalen-1-yl]piperidine-4-carboxamide] | < 0.1 | 
O=C(Nc1cccc2c1CC(O)CC2)C1CCN(c2ccccc2Cl)CC1 (stereo not drawn) [Example 1-3] | < 0.1 | 210
O=C(Nc1cccc2c1CC(O)CC2)C1CCN(c2ccccc2[N+](=O)[O-])CC1 (stereo not drawn) [Example 1-4, N-(7-Hydroxy-5,6,7,8-tetrahydronaphthalen-1-yl)-1-(2-nitrophenyl)piperidine-4-carboxamide] | < 0.1 | 170
O=C(Nc1cccc2c1CC(O)CC2)C1CCN(c2ccc(C(F)(F)F)cc2[N+](=O)[O-])CC1 (stereo not drawn) [Example 1-5, N-(7-Hydroxy-5,6,7,8-tetrahydronaphthalen-1-yl)-1-[2-nitro(trifluoromethyl)phenyl]piperidine-4-carboxamide] | < 0.1 | 218
O=C(Nc1cccc2c1CC(O)CC2)C1CCN(c2ccccc2F)CC1 (stereo not drawn) [Example 1-6, 1-(2-Fluorophenyl)-N-(7-hydroxy-5,6,7,8-tetrahydronaphthalen-1-yl)piperidine-4-carboxamide] | < 0.1 | 207
O=C(Nc1cccc2c1CC(O)CC2)C1CCN(c2ccc(F)cc2)CC1 (stereo not drawn) [Example 1-7, 1-(4-Fluorophenyl)-N-(7-hydroxy-5,6,7,8-tetrahydronaphthalen-1-yl)piperidine-4-carboxamide] | < 0.1 | 205
O=C(Nc1cccc2c1CC(O)CC2)C1CCN(c2ccc(Cl)cc2C(F)(F)F)CC1 (stereo not drawn) [Example 1-8, 1-[4-Chloro-2-(trifluoromethyl)phenyl]-N-(7-hydroxy-5,6,7,8-tetrahydronaphthalen-1-yl)piperidine-4-carboxamide] | < 0.1 | 182
O=C(Nc1cccc2c1CC(O)CC2)C1CCN(c2ccc(C(F)(F)F)cc2)CC1 (stereo not drawn) [Example 1-9, N-(7-Hydroxy-5,6,7,8-tetrahydronaphthalen-1-yl)-1-[4-(trifuoromethyl)phenyl]piperidine-4-carboxamide] | < 0.1 | 222
O=C(Nc1cccc2c1CC(O)CC2)C1CCN(c2ccc(C(F)(F)F)cc2Cl)CC1 (stereo not drawn) [Example 1-10, 1-[2-Chloro-4-(trifluoromethyl)phenyl]-N-(7-hydroxy-5,6,7,8-tetrahydronaphthalen-1-yl)piperidine-4-carboxamide] | < 0.1 | 226
O=C(Nc1cccc2c1C[C@H](O)CC2)C1CCN(c2ccc(F)cc2)CC1 [Example 1-11, 1-(4-Fluorophenyl)-N-[(7R)-7-hydroxy-5,6,7,8-tetrahydronaphthalen-1-yl]piperidine-4-carboxamide] | < 0.1 | 205
O=C(Nc1cccc2c1C[C@@H](O)CC2)C1CCN(c2ccc(F)cc2)CC1 [Example 1-12, 1-(4-Fluorophenyl)-N-[(7S)-7-hydroxy-5,6,7,8-tetrahydronaphthalen-1-yl]piperidine-4-carboxamide] | < 0.1 | 205
O=C(Nc1cccc2c1C[C@H](O)CC2)C1CCN(c2ccc(C(F)(F)F)cc2Cl)CC1 [Example 1-13, 1-[2-Chloro-4-(trifluoromethyl)phenyl]-N-[(7R)-7-hydroxy-5,6,7,8-tetrahydronaphthalen-1-yl]piperidine-4-carboxamide] | < 0.1 | 226
O=C(Nc1cccc2c1C[C@H](O)CC2)C1CCN(c2ccccc2)CC1 [Example 1-14] | < 0.1 | 
O=C(Nc1cccc2c1C[C@H](O)CC2)C1CCN(c2cccc(C(F)(F)F)c2)CC1 [Example 1-15, N-[(7R)-7-Hydroxy-5,6,7,8-tetrahydronaphthalen-1-yl]-1-[3-trifluoromethyl-phenyl]piperidine-4-carboxamide] | < 0.1 | 
O=C(Nc1cccc2c1C[C@H](O)CC2)C1CCN(c2cccc(OC(F)(F)F)c2)CC1 [Example 1-16, N-[(7R)-7-Hydroxy-5,6,7,8-tetrahydronaphthalen-1-yl]-1-[3-trifluoromethoxy-phenyl]piperidine-4-carboxamide] | < 0.1 | 
O=C(Nc1cccc2c1C[C@H](O)CC2)C1CCN(c2ccc(Cl)cc2Cl)CC1 [Example 1-17, 1-[2,4-Dichlorophenyl]-N-[(7R)-7-hydroxy-5,6,7,8-tetrahydronaphthalen-1-yl]piperidine-4-carboxamide] | < 0.1 | 
O=C(Nc1cccc2c1C[C@H](O)CC2)C1CCN(c2ccc(OC(F)(F)F)c(OC(F)(F)F)c2)CC1 [Example 1-18, 1-[3,4-Bis[trifluoromethoxy]phenyl]-N-[(7R)-7-hydroxy-5,6,7,8-tetrahydro-naphthalen-1-yl]piperidine-4-carboxamide] | < 0.1 | 
O=C(Nc1cccc2c1C[C@H](O)CC2)C1CCN(c2ccc(OC(F)(F)F)cc2)CC1 [Example 1-19, N-[(7R)-7-Hydroxy-5,6,7,8-tetrahydronaphthalen-1-yl]-1-[4-trifluoromethoxy-phenyl]piperidine-4-carboxamide] | < 0.1 | 
O=C(Nc1cccc2c1C[C@H](O)CC2)C1CCN(c2nccc(C(F)(F)F)n2)CC1 [Example 1-20, N-[(7R)-7-Hydroxy-5,6,7,8-tetrahydronaphthalen-1-yl]-1-[4-trifluoromethyl-pyrimidin-2-yl]-piperidine-4-carboxamide] | < 0.1 | 
O=C(Nc1cccc2c1C[C@H](O)CC2)C1CCN(c2ncc(Cl)cn2)CC1 [Example 1-21, 1-[5-Chloropyrimidin-2-yl]-N-[(7R)-7-hydroxy-5,6,7,8-tetrahydronaphthalen-1-yl]piperidine-4-carboxamide] | < 0.1 | 
O=C(Nc1cccc2c1C[C@H](O)CC2)C1CCN(c2ccc([N+](=O)[O-])cc2Cl)CC1 [Example 1-22, 1-[2-Chloro-4-nitrophenyl]-N-[(7R)-7-hydroxy-5,6,7,8-tetrahydronaphthalen-1-yl]piperidine-4-carboxamide] | < 0.1 | 
CC(=O)Nc1cc(C(F)(F)F)ccc1N1CCC(C(=O)Nc2cccc3c2C[C@H](O)CC3)CC1 [Example 1-23] | < 0.1 | 
O=C(Nc1cccc2c1C[C@H](O)CC2)C1CCN(c2ccc(C(F)(F)F)cn2)CC1 [Example 1-24, N-[(7R)-7-Hydroxy-5,6,7,8-tetrahydronaphthalen-1-yl]-1-[5-(trifluoromethyl)-pyridin-2-yl]piperidine-4-carboxamide] | < 0.1 | 
O=C(Nc1cccc2c1C[C@H](O)CC2)C1CCN(c2ccc(C(F)(F)F)cc2)CC1 [Example 1-25, N-[(7R)-7-Hydroxy-5,6,7,8-tetrahydronaphthalen-1-yl]-1-[4-trifluoromethyl-phenyl]piperidine-4-carboxamide] | < 0.1 | 

Source: patent US7615557B2, “Tetrahydro-naphthalene and urea derivatives” (Xention Limited, priority 2003, dated 2009)
